Experimental findings from ChEMBL document CHEMBL1201862, “PubChem BioAssay data set” (2004) are described below.

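Tested at 5 concentrations; 48 h exposure; 96-well plates; endpoints linearly interpolated, else capped at highest concentration. Abbreviation: GI50, concentration required for 50% inhibition of growth.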 Activity calls are given as the source filed them. No stated cut-off is given here; in the data, active = GI50 up to about 1.1 µM and inactive = higher.

Among the test systems are SF-268; HCC 2998; UACC-257; A498; HL-60; SK-OV-3; KM12; EKVX; SN12C; K562; DMS-273; ACHN; HCT-15; IGROV-1; SNB-75.
Holding throughout (experiment): growth of human tumour cells (NCI), 48 h

For `C/C(=N\NC(=N)N)C(CN(CC(C)C)CC(C)C)C(=O)Nc1ccc(C)cc1C` (configuration not stated), the GI50 is > 100 µM (inactive) in the assay with SF-268; > 100 µM (inactive) in the assay on HCC 2998; > 100 µM (inactive) in the assay with UACC-257; > 100 µM (inactive) in the assay on A498; 91.8 µM (inactive) with HL-60; > 100 µM (inactive) in the assay on SK-OV-3. Moreover, the GI50 in the assay with KM12 is > 100 µM (inactive); with EKVX, 81.5 µM (inactive); in the assay with SN12C it was > 100 µM (inactive); in the assay with K562 it was > 100 µM (inactive); in the assay on DMS-273, > 100 µM (inactive); in the assay with ACHN, > 100 µM (inactive). Besides, the GI50 was more than 100 µM in the assay with HCT-15, > 100 µM (inactive) in the assay on IGROV-1 and > 100 µM (inactive) in the assay on SNB-75.

As for `CCN(CC)C(=S)N/N=C(\C)c1ccccc1O`, the GI50 was 17.9 µM (inactive) in the assay on SF-268; 13.4 µM (inactive) with HCC 2998; 27 µM (inactive) with UACC-257; 20.5 µM (inactive) in the assay with A498; 22.6 µM (inactive) with HL-60; 33.7 µM (inactive) in the assay on SK-OV-3. The GI50 in the assay on KM12 was 15.5 µM (inactive); with EKVX, 36.4 µM (inactive); in the assay with SN12C it was 20.9 µM (inactive); in the assay with K562, 0.0568 µM (active); in the assay on DMS-273 it was 12.9 µM (inactive); in the assay on ACHN, 14.5 µM (inactive). Further, the GI50 in the assay on HCT-15 was 3.72 µM; in the assay with IGROV-1, 24.5 µM (inactive); in the assay on SNB-75 it was 44.2 µM (inactive).

On to `O=C(O)C1=C(C(=O)Nc2ccccc2)C2C=CC1C2` (configuration not stated), for which the GI50 with SF-268, in the assay with HCC 2998, with UACC-257, in the assay on A498, with HL-60 and in the assay on SK-OV-3 was > 100 µM (inactive) in each case. In addition, the GI50 with KM12, in the assay on EKVX, with SN12C, with K562, with DMS-273 and in the assay with ACHN was > 100 µM (inactive) throughout. Moreover, the GI50 with HCT-15 was more than 100 µM; in the assay with IGROV-1, > 100 µM (inactive); in the assay on SNB-75, > 100 µM (inactive).

On to `Cn1cnc2[nH]c(=O)[nH]c(=S)c21`, for which the GI50 in the assay on SF-268, in the assay with HCC 2998, with UACC-257, in the assay on A498, in the assay with HL-60 and in the assay on SK-OV-3 was > 100 µM (inactive) each time. The GI50 with KM12, in the assay with EKVX, in the assay with SN12C, in the assay on K562, in the assay with DMS-273 and with ACHN was > 100 µM (inactive) throughout. Besides, the GI50 is more than 100 µM with HCT-15, > 100 µM (inactive) with IGROV-1 and > 100 µM (inactive) in the assay on SNB-75.

On to `NNC(=O)C(=O)N/N=C(\CCC(=O)Nc1ccc(Cl)cc1)Cc1nc2ccccc2s1`, for which the GI50 with SF-268 was 25.3 µM (inactive); in the assay on HCC 2998, 44.7 µM (inactive); in the assay on UACC-257, 32.9 µM (inactive); in the assay on A498, 52 µM (inactive); in the assay with HL-60, 4.34 µM (inactive); with SK-OV-3, 27.3 µM (inactive). Also, the GI50 with KM12 was 51.1 µM (inactive); in the assay on EKVX, 27.4 µM (inactive); in the assay on SN12C it was 34.6 µM (inactive); in the assay with K562 it was 18.9 µM (inactive); in the assay on DMS-273, 15.5 µM (inactive); in the assay with ACHN, 26.1 µM (inactive). The results for the GI50 in the assay with HCT-15, in the assay on IGROV-1 and in the assay with SNB-75 were 19.1 µM, 13.6 µM (inactive) and 81.1 µM (inactive), respectively.

Consider `c1ccc(C2=NN(c3ccccc3)C3(S2)SC(c2ccccc2)(c2ccccc2)c2ccccc23)cc1` (configuration not stated), for which the GI50 is > 100 µM (inactive) in the assay on SF-268; > 100 µM (inactive) with HCC 2998; > 100 µM (inactive) in the assay on UACC-257; > 100 µM (inactive) in the assay with A498; 0.804 µM (active) in the assay on HL-60; > 100 µM (inactive) in the assay with SK-OV-3. In addition, the GI50 in the assay with KM12, in the assay with EKVX, with SN12C, with K562, in the assay on DMS-273 and in the assay on ACHN was > 100 µM (inactive) throughout. Also, the results for the GI50 in the assay with HCT-15, with IGROV-1 and in the assay on SNB-75 were more than 100 µM, > 100 µM (inactive) and > 100 µM (inactive), respectively.

With `NC(CCCCN/C=C1/N=C(c2ccccc2)OC1=O)C(=O)O` (configuration not stated), the GI50 in the assay on SF-268, in the assay on HCC 2998, with UACC-257, in the assay on A498, with HL-60 and in the assay with SK-OV-3 was > 100 µM (inactive) throughout. In addition, the GI50 was > 100 µM (inactive) with EKVX; > 100 µM (inactive) in the assay with SN12C; 53.6 µM (inactive) in the assay on K562; > 100 µM (inactive) in the assay on DMS-273; > 100 µM (inactive) in the assay on ACHN; more than 100 µM in the assay with HCT-15. For the same compound, the GI50 in the assay with IGROV-1 and in the assay with SNB-75 was > 100 µM (inactive) each time.

With `CC(C)c1cccc(C(C)C)c1NC(=O)C(=O)Cc1nc2ccc([N+](=O)[O-])cc2nc1O`, the GI50 is 39.6 µM (inactive) in the assay with HCC 2998; 69.2 µM (inactive) in the assay with UACC-257; 58.5 µM (inactive) with A498; > 100 µM (inactive) in the assay with HL-60; > 100 µM (inactive) with SK-OV-3; 13.5 µM (inactive) in the assay with KM12. In addition, the GI50 in the assay with EKVX is 44.2 µM (inactive); in the assay with K562, 30.2 µM (inactive); in the assay on DMS-273, 44.4 µM (inactive); with ACHN it was 54.5 µM (inactive); in the assay with HCT-15, 9.31 µM; in the assay on IGROV-1, > 100 µM (inactive). Moreover, the GI50 in the assay on SNB-75 is > 100 µM (inactive).

As to `CC(=O)NNc1nc(C)c(C(=O)/C=C/c2ccccc2Cl)s1`, the GI50 with SF-268, in the assay on HCC 2998, with UACC-257, with A498, with HL-60 and in the assay with SK-OV-3 was > 100 µM (inactive) throughout. For the same compound, the GI50 in the assay with KM12, in the assay on EKVX, in the assay on SN12C, with K562, with DMS-273 and with ACHN was > 100 µM (inactive) in each case. Moreover, the GI50 with HCT-15 is more than 100 µM; with IGROV-1 it was > 100 µM (inactive); in the assay on SNB-75 it was > 100 µM (inactive).
